# How the values were obtained:
# Assay in all cases: relative viability (nuclei count vs DMSO), 5 days (fraction); higher = more cells survive
# HCC-15 = system: HCC-15
# Procedure, shortened: (§1)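 Relative viability was taken as the ratio of nuclei in treated wells to nuclei in vehicle wells. Lung cancer cell lines in 1536-well plates received compounds by pin tool one day after seeding, either one drug alone or a fixed anchor-drug dose plus five library-drug doses (not always all listed) in √10 steps. Nuclei were counted on 4× images after 5 days of treatment, and values are medians of duplicate plates.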
# NCI-H441 = system: NCI-H441
# Procedure, shortened: as §1
# NCI-H358 = system: NCI-H358
# Procedure, shortened: as §1
# NCI-H1975 = system: NCI-H1975
# Procedure, shortened: as §1
# NCI-H1792 = system: NCI-H1792
# Procedure, shortened: as §1
# NCI-H1666 = system: NCI-H1666
# Procedure, shortened: as §1
# A-427 = system: A-427
# Procedure, shortened: as §1
# COR-L23 = system: COR-L23
# Procedure, shortened: as §1
# LK-2 = system: LK-2
# Procedure, shortened: as §1
# EKVX = system: EKVX
# Procedure, shortened: as §1
# BEN = system: BEN
# Procedure, shortened: as §1
structure (smiles),measurement,setting,value
NC(=O)Nc1cc(-c2cccc(F)c2)sc1C(=O)N[C@H]1CCCNC1 [AZD7762] + CS(=O)(=O)N1CCN(Cc2cc3nc(-c4cccc5[nH]ncc45)nc(N4CCOCC4)c3s2)CC1 [Pictilisib] (partner 1 µM),relative viability,HCC-15; first compound 0.01 µM,0.713
same,relative viability,HCC-15; first compound 0.03162 µM,0.792
same,relative viability,HCC-15; first compound 0.1 µM,0.875
same,relative viability,HCC-15; first compound 0.3162 µM,0.789
same,relative viability,HCC-15; first compound 1 µM,0.824
same,relative viability,NCI-H441; first compound 0.01 µM,0.494
same,relative viability,NCI-H441; first compound 0.03162 µM,0.594
same,relative viability,NCI-H441; first compound 0.1 µM,0.7
same,relative viability,NCI-H441; first compound 0.3162 µM,0.556
same,relative viability,NCI-H441; first compound 1 µM,0.555
same,relative viability,NCI-H358; first compound 0.01 µM,0.363
same,relative viability,NCI-H358; first compound 0.03162 µM,0.358
same,relative viability,NCI-H358; first compound 0.1 µM,0.35
same,relative viability,NCI-H358; first compound 0.3162 µM,0.325
same,relative viability,NCI-H358; first compound 1 µM,0.267
same,relative viability,NCI-H1975; first compound 0.01 µM,0.334
same,relative viability,NCI-H1975; first compound 0.03162 µM,0.304
same,relative viability,NCI-H1975; first compound 0.1 µM,0.288
same,relative viability,NCI-H1975; first compound 0.3162 µM,0.235
same,relative viability,NCI-H1975; first compound 1 µM,0.194
same,relative viability,NCI-H1792; first compound 0.01 µM,0.323
same,relative viability,NCI-H1792; first compound 0.03162 µM,0.328
same,relative viability,NCI-H1792; first compound 0.1 µM,0.311
same,relative viability,NCI-H1792; first compound 0.3162 µM,0.377
same,relative viability,NCI-H1792; first compound 1 µM,0.431
same,relative viability,NCI-H1666; first compound 0.01 µM,0.603
same,relative viability,NCI-H1666; first compound 0.03162 µM,0.407
same,relative viability,NCI-H1666; first compound 0.1 µM,0.55
same,relative viability,NCI-H1666; first compound 0.3162 µM,0.589
same,relative viability,NCI-H1666; first compound 1 µM,0.411
same,relative viability,A-427; first compound 0.01 µM,0.654
same,relative viability,A-427; first compound 0.03162 µM,0.879
same,relative viability,A-427; first compound 0.1 µM,0.762
same,relative viability,A-427; first compound 0.3162 µM,0.734
same,relative viability,A-427; first compound 1 µM,0.49
same,relative viability,COR-L23; first compound 0.01 µM,0.743
same,relative viability,COR-L23; first compound 0.03162 µM,0.86
same,relative viability,COR-L23; first compound 0.1 µM,0.818
same,relative viability,COR-L23; first compound 0.3162 µM,0.68
same,relative viability,COR-L23; first compound 1 µM,0.288
same,relative viability,LK-2; first compound 0.01 µM,0.628
same,relative viability,LK-2; first compound 0.03162 µM,0.485
same,relative viability,LK-2; first compound 0.1 µM,0.482
same,relative viability,LK-2; first compound 0.3162 µM,0.481
same,relative viability,LK-2; first compound 1 µM,0.34
same,relative viability,EKVX; first compound 0.01 µM,0.459
same,relative viability,EKVX; first compound 0.03162 µM,0.451
same,relative viability,EKVX; first compound 0.1 µM,0.462
same,relative viability,EKVX; first compound 0.3162 µM,0.327
same,relative viability,EKVX; first compound 1 µM,0.276
same,relative viability,BEN; first compound 0.01 µM,0.713
same,relative viability,BEN; first compound 0.03162 µM,0.689
same,relative viability,BEN; first compound 0.1 µM,0.537
same,relative viability,BEN; first compound 0.3162 µM,0.539
same,relative viability,BEN; first compound 1 µM,0.41

# Reference: the supplement of paper PMC10307832
